In the supplement of paper PMC10307832:

Experiments:
Experiment in all cases: relative viability (nuclei count vs DMSO), 5 days (fraction); higher = more cells survive
Idelalisib + Phenformin = compound: CC[C@H](Nc1ncnc2[nH]cnc12)c1nc2cccc(F)c2c(=O)n1-c1ccccc1 [Idelalisib] + N=C(N)NC(=N)NCCc1ccccc1 [Phenformin] (partner 250 µM)
In short: (§1)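 Lung cancer cell lines were seeded in 1536-well plates and dosed by pin tool the next day, with either a single drug or a fixed anchor-drug dose combined with five library-drug doses (not always all listed) spaced in √10 steps. Five days later, one step fixed the cells and stained their nuclei (final 0.05% Triton X-100, 1% formaldehyde, 1 ug/ml Hoechst), and nuclei were counted on 4× images. Relative viability is the nuclei count in treated wells divided by the count in vehicle wells, and each value is the median of duplicate plates.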

Pemetrexed + Dasatinib = compound: Nc1nc2[nH]cc(CCc3ccc(C(=O)N[C@@H](CCC(=O)O)C(=O)O)cc3)c2c(=O)[nH]1 [Pemetrexed] + Cc1nc(Nc2ncc(C(=O)Nc3c(C)cccc3Cl)s2)cc(N2CCN(CCO)CC2)n1 [Dasatinib] (partner 0.075 µM)
In short: as §1

Idelalisib + Foretinib = compound: CC[C@H](Nc1ncnc2[nH]cnc12)c1nc2cccc(F)c2c(=O)n1-c1ccccc1 [Idelalisib] + COc1cc2c(Oc3ccc(NC(=O)C4(C(=O)Nc5ccc(F)cc5)CC4)cc3F)ccnc2cc1OCCCN1CCOCC1 [Foretinib] (partner 0.25 µM)
In short: as §1

Idelalisib = compound: CC[C@H](Nc1ncnc2[nH]cnc12)c1nc2cccc(F)c2c(=O)n1-c1ccccc1 [Idelalisib]
In short: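 Vehicle-anchored 1536-well plates of lung cancer cell lines, held overnight at 37 °C, were pinned with five library-drug doses (not always all listed) spaced by √10. No medium change followed over the next 5 days, after which the cells were fixed, permeabilised and Hoechst-stained together and imaged at 4×. Nuclei were counted with MetaXpress, and viability is treated-well nuclei over vehicle-well nuclei, taken as a median across plates. Plates passed with control CV below 25% and at least one doubling.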

| Cell Line | relative viability (Idelalisib + Phenformin; first compound 0.04 µM) | relative viability (Idelalisib + Phenformin; first compound 0.1265 µM) | relative viability (Idelalisib + Phenformin; first compound 0.4 µM) | relative viability (Idelalisib + Phenformin; first compound 1.265 µM) | relative viability (Idelalisib + Phenformin; first compound 4 µM) | relative viability (Pemetrexed + Dasatinib; first compound 0.002 µM) | relative viability (Pemetrexed + Dasatinib; first compound 0.006325 µM) | relative viability (Pemetrexed + Dasatinib; first compound 0.02 µM) | relative viability (Pemetrexed + Dasatinib; first compound 0.06325 µM) | relative viability (Pemetrexed + Dasatinib; first compound 0.2 µM) | relative viability (Idelalisib + Foretinib; first compound 0.04 µM) | relative viability (Idelalisib + Foretinib; first compound 0.1265 µM) | relative viability (Idelalisib + Foretinib; first compound 0.4 µM) | relative viability (Idelalisib + Foretinib; first compound 1.265 µM) | relative viability (Idelalisib + Foretinib; first compound 4 µM) | relative viability (Idelalisib; 0.04 µM) | relative viability (Idelalisib; 0.1265 µM) | relative viability (Idelalisib; 0.4 µM) | relative viability (Idelalisib; 1.265 µM) | relative viability (Idelalisib; 4 µM) |
| --- | --- | --- | --- | --- | --- | --- | --- | --- | --- | --- | --- | --- | --- | --- | --- | --- | --- | --- | --- | --- |
| NCI-H322M | 0.901 | 0.846 | 0.66 | 0.741 | 0.735 | 0.248 | 0.257 | 0.262 | 0.242 | 0.235 | 1.22 | 1.1 | 0.792 | 0.841 | 0.908 | 1.08 | 1.03 | 0.808 | 0.849 | 0.873 |
| NCI-H358 | 0.386 | 0.327 | 0.225 | 0.338 | 0.313 | 0.145 | 0.176 | 0.205 | 0.167 | 0.165 | 0.782 | 0.701 | 0.554 | 0.652 | 0.734 | 1.04 | 0.864 | 0.794 | 0.901 | 0.861 |
| NCI-H441 | 0.803 | 0.919 | 0.639 | 0.885 | 0.898 | 0.429 | 0.573 | 0.556 | 0.392 | 0.273 | 1.15 | 1.09 | 1.05 | 1.11 | 1.2 | 1.13 | 0.941 |  | 1.12 | 1.05 |
| NCI-H460 | 0.643 | 0.516 | 0.438 | 0.503 | 0.515 | 0.357 | 0.536 | 0.524 | 0.406 | 0.101 | 1.03 | 1.06 | 0.962 | 1 | 0.896 | 0.996 | 1.01 | 1.01 | 1.02 | 1 |
| NCI-H520 | 0.513 | 0.585 | 0.466 | 0.451 | 0.397 | 0.235 | 0.224 | 0.208 | 0.203 | 0.235 | 0.738 | 0.741 | 0.587 | 0.7 | 0.553 | 0.958 | 0.987 | 0.84 | 0.922 | 0.79 |
| NCI-H596 | 0.75 | 0.765 | 0.689 | 0.731 | 0.616 | 0.634 | 0.642 | 0.464 | 0.427 | 0.414 | 0.95 | 0.885 | 0.671 | 0.909 | 0.681 | 1.05 | 1.01 | 0.976 | 1.04 | 0.809 |
| NCI-H647 | 0.673 | 0.498 |  | 0.38 | 0.299 | 0.151 | 0.16 | 0.175 | 0.156 | 0.127 | 1.18 | 1.35 |  | 0.895 | 0.746 | 1.01 | 1.08 | 0.719 | 0.847 | 0.702 |
